Measurements: publication PMC12163085, “Targeting transcription factors through an IMiD independent zinc finger domain” (EMBO Molecular Medicine, 2025)
Values belong to the molecule of their own block, whether it stands above or below them.

How the values were obtained:
SNU387-TgSALL4A = system: T1, SNU387-TgSALL4A; test: cells; set-up: species or system SNU398 and SNU387 isogenic lines; CellTiter-Glo luminescence viability dose response in 384-well plates, nonlinear regression; conditions: 72 h cell viability; read-out: EC50 / SNU387-TgSALL4AAHi
T1 construct: SNU387 overexpressing SALL4A (FUW-Luc-mCh-puro)
Protocol: (§1) Empty vector, SALL4A, and SALL4B expressing isogenic cell lines were generated by transducing the SALL4 negative hepatocellular carcinoma SNU-387 cells with empty vector, SALL4A, or SALL4B FUW-Luc-mCh-puro lentiviral constructs. Cells were plated in 50 μl of RPMI culture media in 384-well white flat-bottom plates (Corning) and incubated at 37 °C in a humidified atmosphere of 5% CO2 overnight. Cell numbers per well were 1500 for SNU-398, and 750 for SNU-387 and SNU-387 isogenic lines. After overnight incubation, varying concentrations of compounds 1–80 were added to cells with multichannel electronic pipettes (Rainin). Cells were then incubated for 72 h at 37 °C in a humidified atmosphere of 5% CO2 before 10 μl of CellTiter-Glo reagent was added to the wells with the MultiFlo Microplate Dispenser (BioTek). Cells were incubated at room temperature for a minimum of 10 min, after which luminescence readings were recorded by an Infinite M1000 Microplate Reader (Tecan). Each data point was performed in n = 3 independent cell cultures. IC50 of compounds were determined using nonlinear regression fitting from Prism (GraphPad). Cell-based screening was next employed to evaluate the growth inhibitory activity of the test compounds against SALL4 expressing malignant cells. SNU398, a liver cancer cell line with high endogenous levels of SALL4, and SNU387, a liver cancer cell line with undetectable levels of SALL4, were used for comparison. Cells were incubated with the test compound at 1 μM for 72 h, after which cell viability was assessed. […] Next, we carried out dose escalation studies on all SH compounds to deduce their EC50 values on SNU387 and SNU398. In order to interrogate the effects of compounds targeting SALL4, we created isogenic cells by overexpressing SALL4A (SNU387-TgSALL4A) or SALL4B (SNU387-TgSALL4B) in SNU387 cells (Tan et al, [2019]) (Fig. 2B, and Dataset EV4). The EC50 of SH2, SH6, and SH7 in SALL4 high SNU398 cells were 0.4 μM, 0.5 μM, and 0.3 μM, respectively. In contrast, the EC50 values of the same compounds were more than 10 μM on SALL4 low SNU387 cells.

SNU387 = test: cells; set-up: species or system SNU398 and SNU387 isogenic lines; CellTiter-Glo luminescence viability dose response in 384-well plates, nonlinear regression; conditions: Homo sapiens, SNU-387; 72 h cell viability; read-out: EC50 / SNU387Lo
Protocol: as §1

SNU387-TgSALL4B = system: T2, SNU387-TgSALL4B; test: cells; set-up: species or system SNU398 and SNU387 isogenic lines; CellTiter-Glo luminescence viability dose response in 384-well plates, nonlinear regression; conditions: 72 h cell viability; read-out: EC50 / SNU387-TgSALL4BBHi
T2 construct: SNU387 overexpressing SALL4B (FUW-Luc-mCh-puro)
Protocol: as §1

[1] = system: T3, SNU387-Ev (SNU387 transduced with empty vector); test: cells; set-up: species or system SNU398 and SNU387 isogenic lines; CellTiter-Glo luminescence viability dose response in 384-well plates, nonlinear regression; conditions: Homo sapiens, SNU-387; 72 h cell viability; read-out: EC50 / SNU387-EvLo
T3 construct: empty vector FUW-Luc-mCh-puro
Protocol: as §1

SNU398 = test: cells; set-up: species or system SNU387, SNU398 and SNU387 isogenic lines; CellTiter-Glo luminescence viability dose response in 384-well plates, nonlinear regression; conditions: Homo sapiens, SNU-398; 72 h cell viability; read-out: EC50 / SNU398Hi
Protocol: as §1

CRBN (cereblon) = target: T4, CRBN (cereblon) (Homo sapiens, UniProt Q96SW2); test: in-cell CETSA only ([…] SH6); assay type: cell-based
T4 construct: endogenous CRBN in SNU398 cells

CUL4A = target: T5, CUL4A (Homo sapiens, UniProt Q13619); test: SPR (Biacore, immobilized CUL4A); supported by in-cell CETSA; assay type: binding
T5 construct: Recombinant CUL4A (Creative Biomart CUL4A-690H)

hERG potassium channel = target: T6, hERG potassium channel (Homo sapiens, UniProt Q12809); test: hERG channel block concentration-response; assay type: cell-based
T6 construct: gene KCNH2

SNU387Lo = system: T7, SNU387Lo; test: cells; set-up: species or system SNU-387, SNU-398 and SNU-387 isogenic lines; CellTiter-Glo luminescence cell viability, dose-response EC50; conditions: 72 h
T7 construct: SNU-387 hepatocellular carcinoma, SALL4 low
Protocol: as §1

SNU398Hi = system: T8, SNU398Hi; test: cells; set-up: species or system SNU-387, SNU-398 and SNU-387 isogenic lines; CellTiter-Glo luminescence cell viability, dose-response EC50; conditions: 72 h
T8 construct: SNU-398 hepatocellular carcinoma, SALL4 high
Protocol: as §1

SNU387-TgSALL4AAHi = system: T9, SNU387-TgSALL4AAHi; test: cells; set-up: species or system SNU-387, SNU-398 and SNU-387 isogenic lines; CellTiter-Glo luminescence cell viability, dose-response EC50; conditions: 72 h
T9 construct: SNU-387 overexpressing SALL4A
Protocol: as §1

SNU387-EvLo = system: T10, SNU387-EvLo; test: cells; set-up: species or system SNU-387, SNU-398 and SNU-387 isogenic lines; CellTiter-Glo luminescence cell viability, dose-response EC50; conditions: 72 h
T10 construct: SNU-387 empty vector control
Protocol: as §1

SNU387-TgSALL4BBHi = system: T11, SNU387-TgSALL4BBHi; test: cells; set-up: species or system SNU-387, SNU-398 and SNU-387 isogenic lines; CellTiter-Glo luminescence cell viability, dose-response EC50; conditions: 72 h
T11 construct: SNU-387 overexpressing SALL4B
Protocol: as §1

SALL4 ZFC4 = target: T12, SALL4 ZFC4 (human, UniProt Q9UJQ4); test: X-ray crystallography (2.1 A); Zn2+; 500 uM protein with 750 uM DNA; Crystallization: protein in 20 mM HEPES pH 7.5, 200 mM NaCl, 0.5 mM TCEP, 1 mM DTT, 10 uM ZnCl2; mixed with equal volume of 30% PEG3350, 0.04 M NH4SO4, BisTris; conditions: protein: recombinant; tags: N-terminal GST, removed with thrombin (pGEX4T1); chain copies: 2; blunt
T12 sequence: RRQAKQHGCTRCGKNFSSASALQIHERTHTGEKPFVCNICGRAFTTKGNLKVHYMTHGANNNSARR

T4 sequence (Q96SW2 whole entry): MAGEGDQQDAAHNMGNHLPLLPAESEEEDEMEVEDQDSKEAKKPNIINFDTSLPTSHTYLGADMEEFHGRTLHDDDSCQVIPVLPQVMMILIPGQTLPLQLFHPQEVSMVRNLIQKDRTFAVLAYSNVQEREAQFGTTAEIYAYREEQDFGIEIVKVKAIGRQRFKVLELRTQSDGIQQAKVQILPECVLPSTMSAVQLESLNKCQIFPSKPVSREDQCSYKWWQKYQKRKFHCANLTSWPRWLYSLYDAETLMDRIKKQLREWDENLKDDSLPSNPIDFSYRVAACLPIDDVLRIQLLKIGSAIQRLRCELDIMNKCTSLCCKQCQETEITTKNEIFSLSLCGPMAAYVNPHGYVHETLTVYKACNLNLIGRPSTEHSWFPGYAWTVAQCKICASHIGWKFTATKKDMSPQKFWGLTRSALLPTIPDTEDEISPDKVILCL
T6 sequence (Q12809 whole entry): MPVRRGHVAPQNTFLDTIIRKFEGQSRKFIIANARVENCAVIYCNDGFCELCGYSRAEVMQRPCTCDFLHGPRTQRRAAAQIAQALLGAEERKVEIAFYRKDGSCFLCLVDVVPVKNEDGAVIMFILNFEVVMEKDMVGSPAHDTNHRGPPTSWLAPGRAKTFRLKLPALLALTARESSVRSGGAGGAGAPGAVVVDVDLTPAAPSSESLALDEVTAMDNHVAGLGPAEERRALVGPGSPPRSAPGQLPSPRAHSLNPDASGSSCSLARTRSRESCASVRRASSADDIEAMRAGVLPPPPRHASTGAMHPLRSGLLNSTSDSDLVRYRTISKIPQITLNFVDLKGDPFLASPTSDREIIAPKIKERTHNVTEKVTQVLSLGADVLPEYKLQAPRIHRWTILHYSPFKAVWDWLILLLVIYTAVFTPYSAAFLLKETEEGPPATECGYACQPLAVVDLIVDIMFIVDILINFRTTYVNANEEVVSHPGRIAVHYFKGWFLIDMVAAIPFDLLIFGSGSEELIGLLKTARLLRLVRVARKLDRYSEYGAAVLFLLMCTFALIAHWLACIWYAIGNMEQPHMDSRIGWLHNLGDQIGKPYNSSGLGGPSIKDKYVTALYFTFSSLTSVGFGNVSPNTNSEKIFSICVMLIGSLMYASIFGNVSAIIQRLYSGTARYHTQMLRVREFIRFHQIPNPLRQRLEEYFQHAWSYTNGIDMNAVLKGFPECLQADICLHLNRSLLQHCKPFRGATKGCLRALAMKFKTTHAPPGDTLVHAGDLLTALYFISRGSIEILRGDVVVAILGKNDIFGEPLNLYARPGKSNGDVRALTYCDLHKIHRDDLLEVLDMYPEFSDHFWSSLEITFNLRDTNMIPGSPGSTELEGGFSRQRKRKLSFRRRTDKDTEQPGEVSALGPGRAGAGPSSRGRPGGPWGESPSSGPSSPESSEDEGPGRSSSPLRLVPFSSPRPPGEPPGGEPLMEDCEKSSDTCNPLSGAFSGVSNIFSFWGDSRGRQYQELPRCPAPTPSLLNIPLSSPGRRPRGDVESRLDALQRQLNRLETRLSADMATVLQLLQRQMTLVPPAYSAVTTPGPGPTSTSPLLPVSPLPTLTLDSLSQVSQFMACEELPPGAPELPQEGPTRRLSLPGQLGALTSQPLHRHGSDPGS
T5 sequence (Q13619 whole entry): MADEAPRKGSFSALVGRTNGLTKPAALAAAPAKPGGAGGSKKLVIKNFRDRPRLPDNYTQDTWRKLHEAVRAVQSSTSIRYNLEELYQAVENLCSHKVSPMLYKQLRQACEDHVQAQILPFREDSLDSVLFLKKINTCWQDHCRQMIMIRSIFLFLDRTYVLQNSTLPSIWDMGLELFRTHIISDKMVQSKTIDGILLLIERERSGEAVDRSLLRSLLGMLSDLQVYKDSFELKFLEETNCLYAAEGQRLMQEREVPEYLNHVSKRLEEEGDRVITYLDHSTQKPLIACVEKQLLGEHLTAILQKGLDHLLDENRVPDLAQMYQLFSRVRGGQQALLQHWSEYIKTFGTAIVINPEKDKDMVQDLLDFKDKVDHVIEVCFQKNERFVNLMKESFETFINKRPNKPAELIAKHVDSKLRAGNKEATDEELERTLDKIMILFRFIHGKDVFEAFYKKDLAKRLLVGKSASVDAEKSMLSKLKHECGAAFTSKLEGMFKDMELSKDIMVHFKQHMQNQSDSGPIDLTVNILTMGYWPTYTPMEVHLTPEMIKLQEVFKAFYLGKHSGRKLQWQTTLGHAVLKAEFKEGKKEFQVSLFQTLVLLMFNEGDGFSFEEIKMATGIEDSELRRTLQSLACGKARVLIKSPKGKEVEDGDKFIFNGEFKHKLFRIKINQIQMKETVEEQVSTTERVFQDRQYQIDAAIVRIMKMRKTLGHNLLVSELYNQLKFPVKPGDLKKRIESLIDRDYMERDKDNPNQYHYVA

EC50 (SNU387-TgSALL4A): 1 µM | EC50 (SNU387): ~30 µM | EC50 (SNU387-TgSALL4B): 0.3 µM | EC50 [1]: > 10 µM | EC50 (SNU398): 0.3 µM
Molecule: COc1cc(Nc2ncccc2/C=C/C(=O)Nc2cc(Cl)c(Cl)cc2N)cc(OC)c1OC [SH7]

EC50 (SNU387-TgSALL4A): 1.3 µM | EC50 (SNU387): > 30 µM | EC50 (SNU387-TgSALL4B): 0.4 µM | EC50 [1]: > 10 µM | EC50 (SNU398): 0.4 µM
Molecule: COc1ccc(N)c(NC(=O)/C=C/c2cccnc2Nc2cc(OC)c(OC)c(OC)c2)c1 [SH2]

Kd (CUL4A): ~89 µM
Molecule: COc1cc(Nc2ncccc2/C=C/C(=O)Nc2ccc(Cl)cc2N)cc(OC)c1OC [SH6, (2E)-N-(2-amino-4-chlorophenyl)-3-[2-(3,4,5-trimethoxyanilino)pyridin-3-yl] prop-2-enamide]
in-cell CETSA only (50 μM SH6) (CRBN (cereblon)): higher thermal stability (less unfolding) of CUL4, CRBN, and SALL4 (Fig. 3F), implicating these proteins as binding partners of SH6 | IC50 (hERG potassium channel): 22.2 µM

EC50 (SNU387): > 30 µM | EC50 (SNU398): > 30 µM
Molecule: COc1cc(Nc2ncccc2C(=O)Nc2cc(F)ccc2N)cc(OC)c1OC [SH45]

EC50 (SNU387): > 30 µM | EC50 (SNU398): ~25 µM
Molecule: O=C(NO)c1cccnc1Nc1ccc(C(F)(F)F)cc1 [SH72]

EC50 (SNU387): > 30 µM | EC50 (SNU398): ~20 µM
Molecule: Nc1cc(Cl)c(Cl)cc1NC(=O)c1cccnc1Nc1ccc(F)cc1 [SH63]

EC50 (SNU387): > 30 µM | EC50 (SNU398): > 30 µM
Molecule: COc1cc(Nc2ncccc2C(=O)Nc2cc(C)c(C)cc2N)cc(OC)c1OC [SH44]

EC50 (SNU387Lo): > 30 µM | EC50 (SNU398Hi): > 30 µM | EC50 (SNU387-TgSALL4AAHi): > 10 µM | EC50 (SNU387-EvLo): > 10 µM | EC50 (SNU387-TgSALL4BBHi): > 10 µM
Molecule: Nc1ccc(F)cc1NC(=O)c1cccnc1Nc1ccc(F)cc1 [SH61]

EC50 (SNU387): ~25 µM | EC50 (SNU398): ~16 µM
Molecule: Nc1cc(Cl)c(Cl)cc1NC(=O)c1cccnc1Nc1ccc(C(F)(F)F)cc1 [SH71]

B1: 12-mer TATTA SALL4 motif duplex (dsDNA)
DNA 1: CGAAATATTAGC
DNA 2: GCTAATATTTCG
binding result (SALL4 ZFC4): binds
